{"source": "ChEMBL document CHEMBL1201862", "about": "“PubChem BioAssay data set” (2004)", "key": {"[1]": {"target": "Lysine-specific demethylase 4C (Homo sapiens, UniProt Q9H3R0)", "sequence (Q9H3R0 whole entry)": "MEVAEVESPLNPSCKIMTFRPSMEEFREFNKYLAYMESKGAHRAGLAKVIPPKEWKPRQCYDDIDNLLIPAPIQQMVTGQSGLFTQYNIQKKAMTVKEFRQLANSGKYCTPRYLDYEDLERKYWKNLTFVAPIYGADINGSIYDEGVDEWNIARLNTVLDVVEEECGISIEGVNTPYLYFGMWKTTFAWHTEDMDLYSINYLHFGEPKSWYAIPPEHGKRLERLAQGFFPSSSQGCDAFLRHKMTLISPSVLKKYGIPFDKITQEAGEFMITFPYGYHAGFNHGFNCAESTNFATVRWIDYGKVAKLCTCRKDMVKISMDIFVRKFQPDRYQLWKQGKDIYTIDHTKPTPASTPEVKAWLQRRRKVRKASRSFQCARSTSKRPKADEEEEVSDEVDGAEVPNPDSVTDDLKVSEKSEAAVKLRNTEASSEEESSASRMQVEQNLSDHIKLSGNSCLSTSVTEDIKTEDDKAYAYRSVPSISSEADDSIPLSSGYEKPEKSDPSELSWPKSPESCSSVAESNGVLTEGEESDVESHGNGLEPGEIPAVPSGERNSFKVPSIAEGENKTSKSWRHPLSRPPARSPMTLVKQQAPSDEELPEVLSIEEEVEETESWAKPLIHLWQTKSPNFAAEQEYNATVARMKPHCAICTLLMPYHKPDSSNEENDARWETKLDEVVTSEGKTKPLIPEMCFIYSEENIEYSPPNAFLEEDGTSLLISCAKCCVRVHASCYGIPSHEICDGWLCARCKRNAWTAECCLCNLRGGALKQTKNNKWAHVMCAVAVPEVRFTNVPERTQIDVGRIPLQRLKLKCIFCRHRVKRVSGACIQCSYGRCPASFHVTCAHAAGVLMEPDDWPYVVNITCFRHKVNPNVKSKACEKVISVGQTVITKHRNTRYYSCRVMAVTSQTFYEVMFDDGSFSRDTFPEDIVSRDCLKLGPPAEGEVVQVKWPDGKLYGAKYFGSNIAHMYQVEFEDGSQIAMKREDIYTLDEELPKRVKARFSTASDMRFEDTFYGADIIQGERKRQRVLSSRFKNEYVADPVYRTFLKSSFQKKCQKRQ", "assay": "GASC-1 (JMJD2C) histone demethylase inhibitors, dose response, biochemical, DELFIA europium, cherry-picked samples (AID 488835)", "assay_type": "functional"}, "[2]": {"target": "Luciferin 4-monooxygenase (Photinus pyralis, UniProt P08659)", "sequence (P08659 whole entry)": "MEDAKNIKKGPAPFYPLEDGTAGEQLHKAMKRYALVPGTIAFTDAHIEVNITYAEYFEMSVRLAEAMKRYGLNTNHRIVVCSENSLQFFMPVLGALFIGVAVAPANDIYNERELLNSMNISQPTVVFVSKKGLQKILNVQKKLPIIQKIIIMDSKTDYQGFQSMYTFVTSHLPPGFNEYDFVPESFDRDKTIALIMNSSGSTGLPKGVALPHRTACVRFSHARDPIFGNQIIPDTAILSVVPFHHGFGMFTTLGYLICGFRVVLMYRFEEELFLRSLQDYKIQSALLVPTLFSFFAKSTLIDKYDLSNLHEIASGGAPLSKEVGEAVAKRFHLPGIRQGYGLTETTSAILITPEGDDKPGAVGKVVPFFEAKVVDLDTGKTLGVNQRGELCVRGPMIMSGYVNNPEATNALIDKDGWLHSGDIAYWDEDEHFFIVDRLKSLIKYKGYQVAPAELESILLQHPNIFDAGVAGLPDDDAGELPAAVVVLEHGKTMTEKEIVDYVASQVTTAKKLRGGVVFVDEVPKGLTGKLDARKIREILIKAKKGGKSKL", "assay": "firefly luciferase enzyme inhibitors, dose response, biochemical, luminescence (AID 1891)"}, "[3]": {"assay": "Fluorescence Cell-Based Dose Response to Identify Inhibitors of Thrombin Receptor-Activating Peptide SFLLRN-Mediated P-Selectin Induction on Platelets. [Related pubchem assays: 1663 (Primary HTS), 1889 (retest at dose ), 1891 (counterscreen), 1678 (Project Summary)]", "assay_type": "functional"}, "[4]": {"assay": "Luminescence Cell-Based Dose Confirmation HTS to Identify Inhibitors of Platelet Dense Granule Release. [Related pubchem assays: 1663 (Primary HTS), 1678 (Summary of Project)]", "assay_type": "functional"}, "[5]": {"assay": "growth induction of Burl-1 ts yeast mutant, dose response, counter-screen for SUMOylation pathway inhibitor project, whole organism, S. cerevisiae, luminescence (AID 463199)", "assay_type": "functional"}, "[6]": {"assay": "Luminescence Cell-Based Secondary HTS screen to identify cytotoxic compounds of NIH3T3 cells. [Related pubchem assays: 1885, 1968 ]", "assay_type": "functional"}, "[7]": {"assay": "cytotoxicity toward NIH3T3 fibroblasts, dose response, counter-screen, cell-based, ATP luminescence, mouse fibroblasts (AID 2010);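 also: cells exposed to compound for about 90 hours before reading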", "assay_type": "functional"}, "[8]": {"assay": "inhibitors of Trypanosoma cruzi host-cell infection, confirmation, beta-gal luminescence, NIH3T3 host cells (AID 2630)", "assay_type": "functional, cell-based", "conditions": "Mus musculus"}, "[9]": {"assay": "Luminescence Cell-Based/Microorganism Confirmation at Dose of Inhibitors of Trypanosoma cruzi Infection. [Related pubchem assays: 1885, 1968 ]", "assay_type": "functional"}, "[10]": {"assay": "inhibitors of intracellular T. cruzi replication, confirmation, NIH3T3 host cells, beta-gal luminescence (AID 2044);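 also: luminescent beta-galactosidase reporter signal from transgenic T. cruzi replicating inside host cells; inhibitors lower the luminescence signal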", "assay_type": "functional, cell-based"}, "SUMO-activating enzyme [11]": {"target": "T1, SUMO-activating enzyme (Homo sapiens, UniProt Q9UBT2)", "T1 sequence (Q9UBE0 whole entry)": "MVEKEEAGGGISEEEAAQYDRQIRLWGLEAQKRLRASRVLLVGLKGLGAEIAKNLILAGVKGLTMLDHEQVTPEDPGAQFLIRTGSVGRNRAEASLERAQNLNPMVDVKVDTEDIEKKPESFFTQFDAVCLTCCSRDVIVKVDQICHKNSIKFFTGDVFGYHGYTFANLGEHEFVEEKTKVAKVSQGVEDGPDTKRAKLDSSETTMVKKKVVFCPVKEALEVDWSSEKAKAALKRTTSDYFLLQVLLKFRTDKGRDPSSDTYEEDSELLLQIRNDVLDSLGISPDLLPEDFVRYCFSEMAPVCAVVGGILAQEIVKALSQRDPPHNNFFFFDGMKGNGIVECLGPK", "T1 sequence (Q9UBT2 whole entry)": "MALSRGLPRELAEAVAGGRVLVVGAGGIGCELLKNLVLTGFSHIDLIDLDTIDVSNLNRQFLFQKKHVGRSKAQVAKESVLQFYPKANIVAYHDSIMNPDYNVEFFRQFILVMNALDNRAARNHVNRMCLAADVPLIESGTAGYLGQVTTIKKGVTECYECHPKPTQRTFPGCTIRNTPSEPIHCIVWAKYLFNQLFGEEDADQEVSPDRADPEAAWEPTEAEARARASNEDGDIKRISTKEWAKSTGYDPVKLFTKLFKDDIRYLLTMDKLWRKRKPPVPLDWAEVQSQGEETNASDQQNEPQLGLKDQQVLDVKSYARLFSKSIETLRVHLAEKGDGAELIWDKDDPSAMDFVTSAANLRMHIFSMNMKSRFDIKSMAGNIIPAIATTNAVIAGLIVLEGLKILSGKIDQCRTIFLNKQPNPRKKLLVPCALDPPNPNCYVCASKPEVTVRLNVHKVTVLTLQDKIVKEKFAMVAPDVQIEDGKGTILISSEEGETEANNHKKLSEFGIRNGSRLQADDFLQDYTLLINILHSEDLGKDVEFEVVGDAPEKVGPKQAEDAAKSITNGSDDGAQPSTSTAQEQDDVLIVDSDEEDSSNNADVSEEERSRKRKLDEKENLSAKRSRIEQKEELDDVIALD", "assay": "inhibitors of in vitro SUMOylation cascade, primary screen, biochemical, HTRF, uHTS (AID 2006)", "assay_type": "protein-complex assay"}, "[12]": {"target": "T2, Replicative DNA helicase DnaB (Mycobacterium tuberculosis, UniProt P9WMR3)", "T2 sequence (P9WMR3 whole entry)": "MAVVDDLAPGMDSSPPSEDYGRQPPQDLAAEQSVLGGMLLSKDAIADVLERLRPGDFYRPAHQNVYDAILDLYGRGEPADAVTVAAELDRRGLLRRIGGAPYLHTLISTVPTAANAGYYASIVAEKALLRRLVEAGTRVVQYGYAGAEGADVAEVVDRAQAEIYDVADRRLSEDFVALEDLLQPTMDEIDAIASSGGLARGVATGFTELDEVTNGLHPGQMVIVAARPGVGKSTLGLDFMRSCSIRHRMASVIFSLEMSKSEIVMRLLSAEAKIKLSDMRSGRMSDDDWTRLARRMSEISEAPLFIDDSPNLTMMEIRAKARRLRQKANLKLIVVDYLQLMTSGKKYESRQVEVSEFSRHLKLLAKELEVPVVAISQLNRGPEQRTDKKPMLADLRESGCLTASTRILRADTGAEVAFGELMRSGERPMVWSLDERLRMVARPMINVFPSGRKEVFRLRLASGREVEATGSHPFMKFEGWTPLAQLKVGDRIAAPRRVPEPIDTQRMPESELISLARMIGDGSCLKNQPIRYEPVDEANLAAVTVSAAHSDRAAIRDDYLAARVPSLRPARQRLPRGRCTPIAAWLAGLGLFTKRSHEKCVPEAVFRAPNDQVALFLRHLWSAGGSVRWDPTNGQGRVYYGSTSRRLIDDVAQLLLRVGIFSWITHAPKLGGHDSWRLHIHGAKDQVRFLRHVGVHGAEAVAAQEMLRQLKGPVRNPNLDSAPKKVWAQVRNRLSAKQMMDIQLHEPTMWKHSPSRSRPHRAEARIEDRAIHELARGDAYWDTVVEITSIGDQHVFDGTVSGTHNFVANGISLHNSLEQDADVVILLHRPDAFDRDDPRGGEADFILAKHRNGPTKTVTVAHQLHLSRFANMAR", "assay": "DnaB intein splicing inhibitors, dose response, biochemical, cell-free fluorescence (AID 449749)", "assay_type": "functional"}, "Hexokinase HKDC1": {"target": "Hexokinase HKDC1 (Homo sapiens, UniProt Q2TB90)", "sequence (Q2TB90 whole entry)": "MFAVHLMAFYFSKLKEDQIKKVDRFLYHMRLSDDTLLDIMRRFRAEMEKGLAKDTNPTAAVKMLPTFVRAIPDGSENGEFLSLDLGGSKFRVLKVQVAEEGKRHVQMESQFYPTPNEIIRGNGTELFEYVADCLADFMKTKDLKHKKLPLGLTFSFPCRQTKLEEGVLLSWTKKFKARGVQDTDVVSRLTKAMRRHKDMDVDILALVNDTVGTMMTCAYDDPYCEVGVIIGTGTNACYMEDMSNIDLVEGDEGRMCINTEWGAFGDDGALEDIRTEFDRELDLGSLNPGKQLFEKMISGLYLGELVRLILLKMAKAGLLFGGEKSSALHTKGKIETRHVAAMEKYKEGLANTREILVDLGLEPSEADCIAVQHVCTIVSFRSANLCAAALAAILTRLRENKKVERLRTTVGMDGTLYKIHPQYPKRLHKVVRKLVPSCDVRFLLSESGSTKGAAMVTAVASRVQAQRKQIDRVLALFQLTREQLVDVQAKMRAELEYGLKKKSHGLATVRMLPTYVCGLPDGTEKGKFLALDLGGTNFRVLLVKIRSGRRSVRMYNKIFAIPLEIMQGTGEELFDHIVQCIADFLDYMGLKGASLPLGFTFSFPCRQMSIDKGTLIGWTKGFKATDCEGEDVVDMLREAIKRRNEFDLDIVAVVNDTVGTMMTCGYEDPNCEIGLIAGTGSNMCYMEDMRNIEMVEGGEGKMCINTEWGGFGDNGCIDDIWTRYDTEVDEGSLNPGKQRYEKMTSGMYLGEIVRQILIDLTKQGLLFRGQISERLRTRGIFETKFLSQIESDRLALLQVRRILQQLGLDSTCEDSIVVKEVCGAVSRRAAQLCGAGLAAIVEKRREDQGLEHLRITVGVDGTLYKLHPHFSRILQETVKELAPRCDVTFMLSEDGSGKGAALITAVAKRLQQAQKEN", "assay": "HKDC1 hexokinase inhibitors, dose response, biochemical, W721R variant (AID 504729)", "assay_type": "functional"}, "[13]": {"target": "Eukaryotic translation initiation factor 4E (Mus musculus, UniProt P63073)", "sequence (P63073 whole entry)": "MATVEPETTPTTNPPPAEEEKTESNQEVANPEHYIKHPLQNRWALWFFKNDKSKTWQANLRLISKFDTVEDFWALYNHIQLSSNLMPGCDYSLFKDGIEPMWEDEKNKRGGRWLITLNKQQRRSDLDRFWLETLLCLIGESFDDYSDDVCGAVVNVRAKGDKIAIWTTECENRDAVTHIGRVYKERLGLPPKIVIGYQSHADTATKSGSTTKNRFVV", "assay": "eIF4E–eIF4G protein interaction inhibitors, dose response, biochemical, TR-FRET (AID 855);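 also: potency for disrupting eIF4E binding to eIF4GI seen as loss of FRET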", "assay_type": "functional"}, "Protein RecA": {"target": "T3, Protein RecA (Mycobacterium tuberculosis, UniProt P9WHJ3)", "T3 sequence (P9WHJ3 whole entry)": "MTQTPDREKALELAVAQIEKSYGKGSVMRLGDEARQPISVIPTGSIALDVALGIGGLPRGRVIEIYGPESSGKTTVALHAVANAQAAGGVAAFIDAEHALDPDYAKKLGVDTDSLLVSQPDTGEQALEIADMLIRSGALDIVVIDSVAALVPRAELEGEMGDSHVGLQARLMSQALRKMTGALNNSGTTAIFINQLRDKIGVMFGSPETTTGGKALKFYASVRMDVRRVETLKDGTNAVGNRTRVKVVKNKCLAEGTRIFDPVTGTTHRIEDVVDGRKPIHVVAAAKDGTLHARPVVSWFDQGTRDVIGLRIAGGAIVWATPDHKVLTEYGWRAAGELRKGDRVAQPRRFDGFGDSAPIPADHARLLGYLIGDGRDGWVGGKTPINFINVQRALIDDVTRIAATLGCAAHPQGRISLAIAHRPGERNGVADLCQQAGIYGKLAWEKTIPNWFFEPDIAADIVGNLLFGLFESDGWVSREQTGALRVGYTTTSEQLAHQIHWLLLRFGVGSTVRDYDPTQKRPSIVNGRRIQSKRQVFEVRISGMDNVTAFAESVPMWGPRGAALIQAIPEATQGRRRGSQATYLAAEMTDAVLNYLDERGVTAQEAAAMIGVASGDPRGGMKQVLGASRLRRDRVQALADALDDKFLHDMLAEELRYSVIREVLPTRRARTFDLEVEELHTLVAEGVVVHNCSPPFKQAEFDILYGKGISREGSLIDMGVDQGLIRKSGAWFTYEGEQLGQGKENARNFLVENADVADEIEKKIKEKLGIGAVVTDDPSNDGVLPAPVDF", "assay": "Fluorescence Cell-Free Homogeneous Dose Retest to Identify Inhibitors of RecA-Intein Splicing Activity. [Related pubchem assays (depositor defined):AID2097, AID2223, AID489010, AID492950]", "assay_type": "functional"}, "SUMO-activating enzyme [14]": {"target": "T1, SUMO-activating enzyme", "assay": "SUMOylation inhibitor hit validation, confirmation, SUMOylation inhibitor project, biochemical, AlphaScreen (AID 2018)", "assay_type": "functional"}, "SUMO E1/E2": {"target": "SUMO E1/E2 (Homo sapiens, UniProt P63279+Q9UBE0+Q9UBT2)", "sequence (Q9UBE0 whole entry)": "as the sequence (Q9UBE0 whole entry) above", "sequence (Q9UBT2 whole entry)": "as the sequence (Q9UBT2 whole entry) above", "sequence (P63279 whole entry)": "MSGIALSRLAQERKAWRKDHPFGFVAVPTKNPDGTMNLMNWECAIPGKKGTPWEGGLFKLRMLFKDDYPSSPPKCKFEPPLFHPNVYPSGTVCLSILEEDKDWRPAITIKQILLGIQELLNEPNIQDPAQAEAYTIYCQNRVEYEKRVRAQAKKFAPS", "assay": "SAR analysis of SUMOylation using HTRF in an in-Vitro dose response assay. [Related pubchem assays (depositor defined):AID2006, AID2011, AID2018, AID2069, AID2658]", "assay_type": "functional"}, "Phosphomannomutase 2": {"target": "Phosphomannomutase 2 (Homo sapiens, UniProt O15305)", "sequence (O15305 whole entry)": "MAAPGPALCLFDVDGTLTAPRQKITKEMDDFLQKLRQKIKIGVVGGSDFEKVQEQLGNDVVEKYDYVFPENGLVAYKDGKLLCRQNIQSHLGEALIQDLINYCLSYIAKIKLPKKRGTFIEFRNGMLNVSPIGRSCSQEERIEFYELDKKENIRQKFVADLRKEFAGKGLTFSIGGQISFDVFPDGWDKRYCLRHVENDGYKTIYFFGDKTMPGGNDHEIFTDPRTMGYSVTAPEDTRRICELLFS", "assay": "Counter screen SAR assay for PMM2 inhibitors via a fluorescence intensity assay. [Related pubchem assays (depositor defined):AID1545, AID1574]"}, "[15]": {"target": "T4, Mannose-6-phosphate isomerase (Homo sapiens, UniProt P34949)", "T4 sequence (P34949 whole entry)": "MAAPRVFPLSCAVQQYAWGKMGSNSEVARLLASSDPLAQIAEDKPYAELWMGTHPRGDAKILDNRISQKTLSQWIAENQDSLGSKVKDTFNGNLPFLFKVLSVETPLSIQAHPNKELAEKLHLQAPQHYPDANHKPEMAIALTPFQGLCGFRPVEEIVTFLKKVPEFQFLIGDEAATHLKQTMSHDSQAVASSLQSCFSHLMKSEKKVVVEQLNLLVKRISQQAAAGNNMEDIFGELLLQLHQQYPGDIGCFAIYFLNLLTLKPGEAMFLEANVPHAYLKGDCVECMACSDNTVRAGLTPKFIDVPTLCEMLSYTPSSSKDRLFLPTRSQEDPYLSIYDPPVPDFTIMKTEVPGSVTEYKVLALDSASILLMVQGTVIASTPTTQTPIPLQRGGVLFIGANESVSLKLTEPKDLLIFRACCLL", "assay": "PMI enzyme inhibitors, confirmation, biochemical, fluorescence intensity (AID 1535)"}, "CAAX prenyl protease 1": {"target": "CAAX prenyl protease 1 (Saccharomyces cerevisiae S288c, UniProt P47154)", "sequence (P47154 whole entry)": "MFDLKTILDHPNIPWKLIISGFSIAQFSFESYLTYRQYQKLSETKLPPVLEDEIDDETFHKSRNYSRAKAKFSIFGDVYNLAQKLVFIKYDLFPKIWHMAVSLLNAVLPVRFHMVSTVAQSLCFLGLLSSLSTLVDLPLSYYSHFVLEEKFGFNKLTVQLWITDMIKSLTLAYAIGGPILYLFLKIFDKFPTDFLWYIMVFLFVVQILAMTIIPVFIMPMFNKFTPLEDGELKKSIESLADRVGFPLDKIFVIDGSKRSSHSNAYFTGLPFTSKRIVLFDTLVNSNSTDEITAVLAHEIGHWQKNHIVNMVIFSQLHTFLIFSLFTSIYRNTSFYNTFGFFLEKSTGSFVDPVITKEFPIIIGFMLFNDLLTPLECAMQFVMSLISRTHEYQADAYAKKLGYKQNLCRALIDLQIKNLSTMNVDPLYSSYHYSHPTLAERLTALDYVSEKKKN", "assay": "Ste24 protease inhibitors, dose response, biochemical, S. cerevisiae, plate reader, cherry-pick (AID 488815)"}, "CAAX prenyl protease 2": {"target": "T5, CAAX prenyl protease 2 (Homo sapiens, UniProt Q9Y256)", "T5 sequence (Q9Y256 whole entry)": "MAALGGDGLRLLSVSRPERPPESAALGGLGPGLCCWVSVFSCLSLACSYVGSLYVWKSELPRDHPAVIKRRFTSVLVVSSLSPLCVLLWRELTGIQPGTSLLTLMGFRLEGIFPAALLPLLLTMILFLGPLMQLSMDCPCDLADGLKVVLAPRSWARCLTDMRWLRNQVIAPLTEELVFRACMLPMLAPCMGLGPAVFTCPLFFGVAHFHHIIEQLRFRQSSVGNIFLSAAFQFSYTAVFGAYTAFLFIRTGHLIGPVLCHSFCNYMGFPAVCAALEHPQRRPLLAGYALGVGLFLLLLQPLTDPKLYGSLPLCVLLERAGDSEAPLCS", "assay": "human Rce1 protease inhibitors, dose response, biochemical, yeast membranes, quenched-peptide fluorescence, cherry-pick (AID 588849)"}}, "note": "Active and inactive are the calls of the source.", "data": [{"smiles": "COc1ccc(/C=N/N(C)c2cc(=O)n(C)c(=O)[nH]2)cc1OC", "values": [{"measurement": "AC50", "setting": "[1]", "value": "17.8 µM (active)"}, {"measurement": "EC50", "setting": "[2]", "value": "> 112 µM (not active)"}, {"measurement": "EC50", "setting": "[3]", "value": "< 1 µM (active)"}, {"measurement": "EC50", "setting": "[4]", "value": "0.693 µM (active)"}]}, {"smiles": "O=C1CC(c2ccccc2)C(=O)N1c1cccc(O)c1", "note": "(stereo unspecified)", "values": [{"measurement": "AC50", "setting": "[5]", "value": "53.6 µM (active)"}]}, {"smiles": "CC(C)Oc1cccc(C(=O)C2CCCN(Cc3cnc(N4CCCC4)s3)C2)c1", "note": "(stereo unspecified)", "values": [{"measurement": "EC50", "setting": "[6]", "value": "63.8 µM (active)"}, {"measurement": "EC50", "setting": "[7]", "value": "> 60 µM (not active)"}, {"measurement": "EC50", "setting": "[8]", "value": "0.607 µM (active)"}, {"measurement": "EC50", "setting": "[9]", "value": "0.606 µM (active)"}, {"measurement": "EC50", "setting": "[10]", "value": "0.14 µM (active)"}]}, {"smiles": "O=C(/C=C/c1cccs1)Nc1scc(-c2ccccc2)c1C(=O)O", "values": [{"measurement": "IC50", "setting": "SUMO-activating enzyme [11]", "value": "9.84 µM (active)"}, {"measurement": "AC50", "setting": "[12]", "value": "23.3 µM (active)"}, {"measurement": "IC50", "setting": "Hexokinase HKDC1", "value": "7 µM (active)"}, {"measurement": "IC50", "setting": "[13]", "value": "5.76 µM (active)"}, {"measurement": "EC50", "setting": "Protein RecA", "value": "10.6 µM (active)"}, {"measurement": "IC50", "setting": "SUMO-activating enzyme [14]", "value": "2.74 µM (active)"}, {"measurement": "IC50", "setting": "SUMO E1/E2", "value": "6.11 µM (active)"}]}, {"smiles": "Cc1cccc(/N=c2\\ssnc2Cl)c1", "values": [{"measurement": "IC50", "setting": "Phosphomannomutase 2", "value": "> 100 µM (inactive)"}, {"measurement": "IC50", "setting": "[15]", "value": "> 100 µM (inactive)"}]}, {"smiles": "CCOc1cccc(-c2nn(-c3ccccc3)cc2/C=C(/C#N)C(=O)NCCCn2ccnc2)c1", "values": [{"measurement": "AC50", "setting": "CAAX prenyl protease 1", "value": "7.93 µM (active)"}, {"measurement": "AC50", "setting": "CAAX prenyl protease 2", "value": "22.3 µM (active)"}]}]}
